The target of assay [1] is T1, Tyrosine-protein phosphatase non-receptor type 22 (Homo sapiens, UniProt Q9Y2R2).
T1 sequence (Q9Y2R2 whole entry): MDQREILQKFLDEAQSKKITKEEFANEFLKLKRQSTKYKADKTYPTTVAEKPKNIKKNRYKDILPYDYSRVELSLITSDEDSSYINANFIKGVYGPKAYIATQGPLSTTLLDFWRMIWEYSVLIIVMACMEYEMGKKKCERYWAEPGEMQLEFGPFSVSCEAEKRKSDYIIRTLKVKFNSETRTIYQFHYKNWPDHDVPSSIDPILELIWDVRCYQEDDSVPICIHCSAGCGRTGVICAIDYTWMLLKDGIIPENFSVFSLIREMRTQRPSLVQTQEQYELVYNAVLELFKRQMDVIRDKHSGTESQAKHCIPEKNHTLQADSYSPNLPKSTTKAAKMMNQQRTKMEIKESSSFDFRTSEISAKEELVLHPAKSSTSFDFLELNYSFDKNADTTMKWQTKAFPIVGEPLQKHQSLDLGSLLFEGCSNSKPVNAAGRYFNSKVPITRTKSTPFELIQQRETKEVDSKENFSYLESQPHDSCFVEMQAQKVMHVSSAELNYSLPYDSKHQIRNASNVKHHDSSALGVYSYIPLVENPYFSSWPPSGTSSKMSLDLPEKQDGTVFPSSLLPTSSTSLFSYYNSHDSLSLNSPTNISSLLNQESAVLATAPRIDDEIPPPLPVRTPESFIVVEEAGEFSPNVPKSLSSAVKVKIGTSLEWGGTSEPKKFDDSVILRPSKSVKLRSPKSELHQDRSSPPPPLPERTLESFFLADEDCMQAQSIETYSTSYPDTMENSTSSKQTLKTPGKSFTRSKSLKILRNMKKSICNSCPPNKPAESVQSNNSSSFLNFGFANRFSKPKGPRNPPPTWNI
Kind of assay: Inhibition of phosphatase activity of human LYP using pNPP as a substrate after 10 mins by spectrophotometer analysis.

The target in assay [2] is T2, Tyrosine-protein phosphatase non-receptor type 7 (Homo sapiens, UniProt P35236).
T2 sequence (P35236 whole entry): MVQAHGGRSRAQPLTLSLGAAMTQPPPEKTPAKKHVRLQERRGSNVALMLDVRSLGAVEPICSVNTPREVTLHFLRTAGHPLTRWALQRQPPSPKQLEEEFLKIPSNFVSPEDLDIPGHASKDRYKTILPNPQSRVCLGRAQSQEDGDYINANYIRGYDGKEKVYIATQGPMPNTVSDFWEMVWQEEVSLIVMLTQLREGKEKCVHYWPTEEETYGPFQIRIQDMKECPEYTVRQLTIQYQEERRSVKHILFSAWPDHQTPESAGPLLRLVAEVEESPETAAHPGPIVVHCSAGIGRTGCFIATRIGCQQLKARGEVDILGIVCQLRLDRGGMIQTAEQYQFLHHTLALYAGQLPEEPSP
The assay is described as follows: Inhibition of phosphatase activity of human HePTP using pNPP as a substrate after 10 mins by spectrophotometer analysis.

The target in assay [3] is Receptor-type tyrosine-protein phosphatase alpha (Homo sapiens, UniProt P18433). The assay is described as follows: Inhibition of phosphatase activity of human PTPalpha using pNPP as a substrate after 10 mins by spectrophotometer analysis.
Chain of Receptor-type tyrosine-protein phosphatase alpha (P18433 whole entry): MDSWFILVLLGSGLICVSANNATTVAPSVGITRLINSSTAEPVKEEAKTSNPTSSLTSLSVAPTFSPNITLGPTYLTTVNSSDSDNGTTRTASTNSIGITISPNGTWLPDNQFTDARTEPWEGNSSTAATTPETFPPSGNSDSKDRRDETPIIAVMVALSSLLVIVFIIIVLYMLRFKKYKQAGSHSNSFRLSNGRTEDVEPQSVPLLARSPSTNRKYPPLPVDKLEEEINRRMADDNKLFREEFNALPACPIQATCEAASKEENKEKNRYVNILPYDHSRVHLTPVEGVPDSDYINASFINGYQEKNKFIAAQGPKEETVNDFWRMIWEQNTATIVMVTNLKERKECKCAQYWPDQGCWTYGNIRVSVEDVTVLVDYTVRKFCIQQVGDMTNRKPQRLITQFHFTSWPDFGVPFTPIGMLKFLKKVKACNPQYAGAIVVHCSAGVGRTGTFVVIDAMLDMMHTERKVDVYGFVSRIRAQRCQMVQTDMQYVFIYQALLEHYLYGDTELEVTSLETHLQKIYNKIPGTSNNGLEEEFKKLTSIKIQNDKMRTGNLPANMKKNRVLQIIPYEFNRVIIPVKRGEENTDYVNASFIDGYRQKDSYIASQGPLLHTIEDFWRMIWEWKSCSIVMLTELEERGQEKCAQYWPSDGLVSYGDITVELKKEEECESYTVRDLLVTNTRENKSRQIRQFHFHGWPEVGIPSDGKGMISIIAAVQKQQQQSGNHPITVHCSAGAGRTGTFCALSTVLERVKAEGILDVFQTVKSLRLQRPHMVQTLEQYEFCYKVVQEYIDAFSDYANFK
Assay [4] has as its target Receptor-type tyrosine-protein phosphatase beta (Homo sapiens, UniProt P23467). Kind of assay: Inhibition of phosphatase activity of human PTPbeta using pNPP as a substrate after 10 mins by spectrophotometer analysis.
The target in assay [5] is Receptor-type tyrosine-protein phosphatase epsilon (Homo sapiens, UniProt P23469). Kind of assay: Inhibition of phosphatase activity of human PTPepsilon using pNPP as a substrate after 10 mins by spectrophotometer analysis.
Chain of Receptor-type tyrosine-protein phosphatase epsilon (P23469 whole entry): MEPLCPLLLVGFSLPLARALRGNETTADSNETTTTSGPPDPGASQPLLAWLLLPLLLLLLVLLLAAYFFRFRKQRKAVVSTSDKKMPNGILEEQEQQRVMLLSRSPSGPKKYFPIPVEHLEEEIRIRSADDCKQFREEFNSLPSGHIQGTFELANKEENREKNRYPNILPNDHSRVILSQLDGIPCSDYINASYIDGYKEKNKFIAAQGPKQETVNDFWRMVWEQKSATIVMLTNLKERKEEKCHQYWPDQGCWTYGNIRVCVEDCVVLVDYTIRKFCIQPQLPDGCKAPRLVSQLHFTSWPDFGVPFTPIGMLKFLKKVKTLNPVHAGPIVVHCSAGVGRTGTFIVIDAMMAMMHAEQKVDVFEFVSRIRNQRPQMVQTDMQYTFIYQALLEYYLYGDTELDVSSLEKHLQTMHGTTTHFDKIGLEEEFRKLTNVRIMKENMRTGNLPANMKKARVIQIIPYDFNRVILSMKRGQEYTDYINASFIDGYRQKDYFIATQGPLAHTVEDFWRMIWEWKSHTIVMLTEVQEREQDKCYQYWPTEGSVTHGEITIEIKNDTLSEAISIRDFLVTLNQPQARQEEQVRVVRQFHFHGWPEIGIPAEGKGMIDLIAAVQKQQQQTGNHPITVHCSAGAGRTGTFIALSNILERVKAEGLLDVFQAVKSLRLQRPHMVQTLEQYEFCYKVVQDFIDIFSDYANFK
In assay [6] the target is Receptor-type tyrosine-protein phosphatase gamma (Homo sapiens, UniProt P23470). Kind of assay: Inhibition of phosphatase activity of human PTPgamma using pNPP as a substrate after 10 mins by spectrophotometer analysis.
Chain of Receptor-type tyrosine-protein phosphatase gamma (P23470 whole entry): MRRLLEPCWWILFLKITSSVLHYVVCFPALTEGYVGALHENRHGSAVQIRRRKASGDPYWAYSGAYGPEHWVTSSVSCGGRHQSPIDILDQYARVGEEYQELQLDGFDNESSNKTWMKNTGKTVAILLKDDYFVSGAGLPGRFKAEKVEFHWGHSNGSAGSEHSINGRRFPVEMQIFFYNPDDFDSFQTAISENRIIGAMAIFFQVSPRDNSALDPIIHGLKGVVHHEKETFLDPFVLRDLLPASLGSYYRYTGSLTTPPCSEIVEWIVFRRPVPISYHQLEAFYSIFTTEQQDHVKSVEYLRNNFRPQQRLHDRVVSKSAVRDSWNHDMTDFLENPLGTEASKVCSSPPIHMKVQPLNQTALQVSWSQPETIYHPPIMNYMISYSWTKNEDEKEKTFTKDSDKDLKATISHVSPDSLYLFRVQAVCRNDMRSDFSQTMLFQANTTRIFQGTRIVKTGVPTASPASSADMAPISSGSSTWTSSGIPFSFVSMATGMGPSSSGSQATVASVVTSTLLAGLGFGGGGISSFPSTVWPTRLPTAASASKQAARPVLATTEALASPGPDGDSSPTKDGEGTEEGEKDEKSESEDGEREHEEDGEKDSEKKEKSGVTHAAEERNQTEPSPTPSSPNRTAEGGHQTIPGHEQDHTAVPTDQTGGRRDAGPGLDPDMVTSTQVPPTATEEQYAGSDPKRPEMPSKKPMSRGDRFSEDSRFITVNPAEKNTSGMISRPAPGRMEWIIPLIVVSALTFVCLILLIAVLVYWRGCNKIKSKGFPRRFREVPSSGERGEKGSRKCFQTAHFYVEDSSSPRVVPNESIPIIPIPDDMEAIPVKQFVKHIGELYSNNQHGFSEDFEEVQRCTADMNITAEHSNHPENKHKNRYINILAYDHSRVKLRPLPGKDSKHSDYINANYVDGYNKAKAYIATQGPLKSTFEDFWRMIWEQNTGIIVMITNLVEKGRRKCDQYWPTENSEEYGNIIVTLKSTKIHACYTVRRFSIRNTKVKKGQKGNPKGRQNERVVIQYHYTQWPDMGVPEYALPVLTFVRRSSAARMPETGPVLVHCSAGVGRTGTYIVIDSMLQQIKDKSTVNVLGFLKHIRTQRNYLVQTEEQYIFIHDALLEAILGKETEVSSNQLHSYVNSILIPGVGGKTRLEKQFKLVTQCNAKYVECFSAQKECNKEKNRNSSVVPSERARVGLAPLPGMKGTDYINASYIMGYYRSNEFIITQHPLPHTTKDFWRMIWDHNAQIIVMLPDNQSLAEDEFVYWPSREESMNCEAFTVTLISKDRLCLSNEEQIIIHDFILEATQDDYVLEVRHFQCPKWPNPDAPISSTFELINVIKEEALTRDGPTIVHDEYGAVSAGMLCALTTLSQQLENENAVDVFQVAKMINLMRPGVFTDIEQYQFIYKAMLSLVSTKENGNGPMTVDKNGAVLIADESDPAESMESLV
The target in assay [7] is Receptor-type tyrosine-protein phosphatase mu (Homo sapiens, UniProt P28827). The assay is described as follows: Inhibition of phosphatase activity of human PTPmu using pNPP as a substrate after 10 mins by spectrophotometer analysis.
Assay [8] addresses Dual specificity protein phosphatase 3 (Homo sapiens, UniProt P51452). The assay is described as follows: Inhibition of phosphatase activity of human VHR using pNPP as a substrate after 10 mins by spectrophotometer analysis.
In assay [9] the target is T3, Dual specificity protein phosphatase CDC14A (Homo sapiens, UniProt Q9UNH5).
T3 sequence (Q9UNH5 whole entry): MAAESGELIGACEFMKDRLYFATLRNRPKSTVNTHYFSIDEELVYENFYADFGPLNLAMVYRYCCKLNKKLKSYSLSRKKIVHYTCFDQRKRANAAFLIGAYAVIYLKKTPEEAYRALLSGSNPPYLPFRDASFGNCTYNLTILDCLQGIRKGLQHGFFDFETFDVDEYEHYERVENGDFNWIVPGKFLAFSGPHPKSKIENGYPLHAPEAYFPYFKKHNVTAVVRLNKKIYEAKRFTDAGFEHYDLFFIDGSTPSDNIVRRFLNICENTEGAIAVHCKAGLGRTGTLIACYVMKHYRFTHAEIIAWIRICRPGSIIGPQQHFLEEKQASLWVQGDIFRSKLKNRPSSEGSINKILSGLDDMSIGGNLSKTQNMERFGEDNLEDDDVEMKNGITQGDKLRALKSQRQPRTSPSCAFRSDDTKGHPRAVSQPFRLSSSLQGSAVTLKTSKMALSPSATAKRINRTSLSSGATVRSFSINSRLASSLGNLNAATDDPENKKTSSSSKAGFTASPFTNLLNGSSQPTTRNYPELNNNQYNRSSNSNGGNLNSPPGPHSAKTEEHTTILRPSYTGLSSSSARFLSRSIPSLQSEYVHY
The assay is described as follows: Inhibition of phosphatase activity of human CDC14A using pNPP as a substrate after 10 mins by spectrophotometer analysis.

Assay [10] concerns the target T4, Serine/threonine-protein phosphatase 5 (Homo sapiens, UniProt P53041).
T4 sequence (P53041 whole entry): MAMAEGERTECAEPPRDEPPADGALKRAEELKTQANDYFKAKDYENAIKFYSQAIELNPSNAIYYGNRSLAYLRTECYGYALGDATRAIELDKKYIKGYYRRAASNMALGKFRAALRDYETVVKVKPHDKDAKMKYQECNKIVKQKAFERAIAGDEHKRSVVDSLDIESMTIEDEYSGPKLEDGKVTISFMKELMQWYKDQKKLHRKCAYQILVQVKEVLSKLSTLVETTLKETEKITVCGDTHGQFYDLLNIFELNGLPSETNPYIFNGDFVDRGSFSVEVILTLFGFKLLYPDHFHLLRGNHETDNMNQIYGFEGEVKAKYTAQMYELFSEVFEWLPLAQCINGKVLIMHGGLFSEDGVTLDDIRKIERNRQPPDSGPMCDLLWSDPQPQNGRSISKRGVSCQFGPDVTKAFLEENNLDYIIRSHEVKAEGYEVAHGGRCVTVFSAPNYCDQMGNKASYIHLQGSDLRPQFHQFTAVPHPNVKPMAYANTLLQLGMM
The assay is described as follows: Inhibition of phosphatase activity of human PP5 using pNPP as a substrate after 10 mins by spectrophotometer analysis.

For assay [11], the system named is NCI-H1975. Kind of assay: Cytotoxicity against human NCI-H1975 cells by MTT assay. The format is functional, cell-based. A general note: Formazan colour is commonly taken as a measure of viable cells.
Assay [12] deals with MDA-MB-231. Kind of assay: Cytotoxicity against human MDA-MB-231 cells by MTT assay. Format: functional, cell-based.

Data on two compounds can be found in ChEMBL document CHEMBL3608232, “Exploring the Existing Drug Space for Novel pTyr Mimetic and SHP2 Inhibitors” (ACS Med Chem Lett, 2015).

Some results are limits rather than exact numbers.

By IC50 is commonly meant the concentration at which inhibition is half-maximal.

Chain of Receptor-type tyrosine-protein phosphatase beta (P23467 whole entry): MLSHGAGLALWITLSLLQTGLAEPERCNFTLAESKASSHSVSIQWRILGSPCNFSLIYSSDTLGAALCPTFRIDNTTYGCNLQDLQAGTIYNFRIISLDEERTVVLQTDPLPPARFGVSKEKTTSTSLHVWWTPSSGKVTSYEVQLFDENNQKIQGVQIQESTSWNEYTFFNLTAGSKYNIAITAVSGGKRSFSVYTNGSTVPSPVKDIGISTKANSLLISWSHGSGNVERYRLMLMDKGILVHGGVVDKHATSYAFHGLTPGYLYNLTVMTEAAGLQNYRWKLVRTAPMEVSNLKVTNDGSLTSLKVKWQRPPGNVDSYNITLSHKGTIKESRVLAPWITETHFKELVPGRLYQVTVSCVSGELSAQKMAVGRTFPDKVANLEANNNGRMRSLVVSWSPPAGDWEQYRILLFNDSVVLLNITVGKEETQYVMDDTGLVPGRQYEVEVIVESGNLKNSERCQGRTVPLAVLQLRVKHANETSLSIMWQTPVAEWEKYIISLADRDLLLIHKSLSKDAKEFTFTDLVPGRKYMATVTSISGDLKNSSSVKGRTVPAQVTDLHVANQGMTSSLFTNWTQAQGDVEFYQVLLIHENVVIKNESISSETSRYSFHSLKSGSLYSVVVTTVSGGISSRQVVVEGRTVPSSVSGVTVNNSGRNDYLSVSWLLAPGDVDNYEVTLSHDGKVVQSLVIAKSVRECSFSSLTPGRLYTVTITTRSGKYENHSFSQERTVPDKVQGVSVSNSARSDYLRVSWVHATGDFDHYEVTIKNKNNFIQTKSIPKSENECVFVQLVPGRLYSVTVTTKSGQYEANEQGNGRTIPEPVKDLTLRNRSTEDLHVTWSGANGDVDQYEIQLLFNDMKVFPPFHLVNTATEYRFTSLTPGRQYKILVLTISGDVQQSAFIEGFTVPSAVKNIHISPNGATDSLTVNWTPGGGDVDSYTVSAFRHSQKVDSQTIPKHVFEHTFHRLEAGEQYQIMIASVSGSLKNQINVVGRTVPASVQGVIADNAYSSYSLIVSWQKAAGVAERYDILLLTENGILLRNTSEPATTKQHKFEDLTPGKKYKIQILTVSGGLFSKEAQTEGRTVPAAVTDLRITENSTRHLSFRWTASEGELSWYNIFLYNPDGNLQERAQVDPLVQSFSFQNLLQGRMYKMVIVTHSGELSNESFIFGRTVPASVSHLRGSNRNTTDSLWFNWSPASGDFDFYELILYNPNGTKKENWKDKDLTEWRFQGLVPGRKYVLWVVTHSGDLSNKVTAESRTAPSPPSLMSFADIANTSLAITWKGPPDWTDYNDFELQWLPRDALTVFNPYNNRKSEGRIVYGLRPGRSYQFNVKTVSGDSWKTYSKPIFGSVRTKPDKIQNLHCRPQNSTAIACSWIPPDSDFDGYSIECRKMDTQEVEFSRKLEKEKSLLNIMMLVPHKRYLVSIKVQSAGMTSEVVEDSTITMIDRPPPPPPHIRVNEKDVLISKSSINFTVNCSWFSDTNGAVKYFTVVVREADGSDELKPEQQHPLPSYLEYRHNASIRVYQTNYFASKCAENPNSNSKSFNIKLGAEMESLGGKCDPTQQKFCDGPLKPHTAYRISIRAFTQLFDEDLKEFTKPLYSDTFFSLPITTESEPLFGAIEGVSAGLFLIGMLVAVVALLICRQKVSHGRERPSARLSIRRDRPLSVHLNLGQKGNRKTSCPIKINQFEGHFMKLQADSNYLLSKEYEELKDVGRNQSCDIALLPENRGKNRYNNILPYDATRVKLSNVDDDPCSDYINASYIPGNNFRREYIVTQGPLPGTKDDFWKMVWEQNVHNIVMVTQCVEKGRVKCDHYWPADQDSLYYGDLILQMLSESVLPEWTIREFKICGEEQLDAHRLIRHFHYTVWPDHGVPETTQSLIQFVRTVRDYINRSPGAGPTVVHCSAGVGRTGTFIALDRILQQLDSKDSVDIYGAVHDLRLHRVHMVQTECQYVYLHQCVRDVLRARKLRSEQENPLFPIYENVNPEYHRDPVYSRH
Chain of Dual specificity protein phosphatase 3 (P51452 whole entry): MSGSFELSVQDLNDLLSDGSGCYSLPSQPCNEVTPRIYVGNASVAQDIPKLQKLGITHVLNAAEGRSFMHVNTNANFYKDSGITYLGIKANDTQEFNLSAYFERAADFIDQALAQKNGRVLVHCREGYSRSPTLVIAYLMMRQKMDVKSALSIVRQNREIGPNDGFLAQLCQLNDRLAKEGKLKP

Regarding `O=C(Nc1ccc(I)cc1)C(=O)Nc1ccc(NC(=O)C(c2ccccc2)S(=O)(=O)O)cc1` (centres undefined), the IC50 in assay [1], in assay [2], in assay [3], in assay [4], in assay [5] and in assay [6] was over 50 µM each time. The IC50 in assay [7], in assay [8], in [9] and in assay [10] was over 50 µM in each case. The Activity result in assay [11] and in [12] was “Dose-dependent effect” each time.
On to `O=C(Nc1ccc(NC(=O)C(c2ccccc2)S(=O)(=O)O)cc1)C(=O)Nc1ccc(-c2ccccc2)cc1` (centres undefined), for which the IC50 in [1], in assay [2], in assay [3], in [4], in assay [5] and in [6] was over 50 µM in each case. Besides, the IC50 in assay [7], in [8], in [9] and in assay [10] was over 50 µM throughout. Also, the Activity entry in assay [11] and in assay [12] was “Dose-dependent effect” in each case.
